#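 Interpolation was linear, between the two tested concentrations surrounding the appropriate level; five concentrations were tested over 48 hours in 96-well plates. TGI: concentration producing complete growth inhibition.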
# Tests used:
# Assay in all cases: DTP human tumour cell line panel, 48 h
# [1] = test system: A498 renal
# [2] = test system: SF-295 CNS
# [3] = test system: HT29 colon
# [4] = test system: 786-0 renal
# [5] = test system: A549 NSCLC
# [6] = test system: K-562 leukemia
# [7] = test system: SNB-78 CNS
# [8] = test system: HL-60(TB) leukemia
# [9] = test system: SF-268 CNS
# [10] = test system: COLO 205 colon
# [11] = test system: U251 CNS
# [12] = test system: UACC-257 melanoma
# [13] = test system: KM20L2 colon
# [14] = test system: DMS 114 small cell lung
# [15] = test system: EKVX NSCLC
# [16] = test system: RPMI-8226 leukemia
# [17] = test system: NCI-H23 lung
# [18] = test system: RXF 393 renal
# [19] = test system: M14 melanoma
# [20] = test system: SN12C renal
# [21] = test system: SF-539 CNS
# [22] = test system: OVCAR-4 ovarian
# [23] = test system: SK-MEL-2 melanoma
# [24] = test system: OVCAR-5 ovarian
# [25] = test system: SW-620 colon
# [26] = test system: SNB-75 CNS
# [27] = test system: M19-MEL melanoma
# [28] = test system: OVCAR-8 ovarian
# [29] = test system: UO-31 renal
# [30] = test system: UACC-62 melanoma
# [31] = test system: IGROV1 ovarian
# [32] = test system: NCI-H522 lung
# [33] = test system: XF 498 CNS
# [34] = test system: SK-MEL-28 melanoma
# [35] = test system: SK-MEL-5 melanoma
# [36] = test system: LXFL 529 NSCLC
# [37] = test system: HOP-62 NSCLC
# [38] = test system: KM12 colon
# [39] = test system: NCI-H460 lung
# [40] = test system: SNB-19 CNS
# [41] = test system: OVCAR-3 ovarian
# [42] = test system: MOLT-4 leukemia
# [43] = test system: LOX IMVI melanoma
# [44] = test system: CCRF-CEM leukemia
# [45] = test system: NCI-H226 lung
# [46] = test system: MALME-3M melanoma
# [47] = test system: TK-10 renal
# [48] = test system: DLD-1 colon
# [49] = test system: HOP-18 NSCLC
# [50] = test system: HOP-92 NSCLC
# [51] = test system: CAKI-1 renal
# [52] = test system: SK-OV-3 ovarian
# [53] = test system: ACHN renal
# [54] = test system: HCT-116 colon
# [55] = test system: DMS 273 small cell lung
# [56] = test system: HCC-2998 colon
# [57] = test system: HCT-15 colon
compound,measurement,setting,value
O=C(OCCO)C1CC2CC1C1(C2)OCCO1 (stereo not drawn),TGI,[1],> 100 µM
same,TGI,[2],> 100 µM
same,TGI,[3],> 100 µM
same,TGI,[4],> 100 µM
same,TGI,[5],> 100 µM
same,TGI,[6],> 100 µM
same,TGI,[7],> 100 µM
same,TGI,[8],> 100 µM
same,TGI,[9],> 100 µM
same,TGI,[10],> 100 µM
same,TGI,[11],> 100 µM
same,TGI,[12],> 100 µM
same,TGI,[13],> 100 µM
same,TGI,[14],> 100 µM
same,TGI,[15],> 100 µM
same,TGI,[16],> 100 µM
same,TGI,[17],> 100 µM
same,TGI,[18],> 100 µM
same,TGI,[19],> 100 µM
same,TGI,[20],> 100 µM
same,TGI,[21],> 100 µM
same,TGI,[22],> 100 µM
same,TGI,[23],> 100 µM
same,TGI,[24],> 100 µM
same,TGI,[25],> 100 µM
same,TGI,[26],> 100 µM
same,TGI,[27],> 100 µM
same,TGI,[28],> 100 µM
same,TGI,[29],> 100 µM
same,TGI,[30],> 100 µM
same,TGI,[31],> 100 µM
same,TGI,[32],> 100 µM
same,TGI,[33],> 100 µM
same,TGI,[34],> 100 µM
same,TGI,[35],> 100 µM
same,TGI,[36],> 100 µM
same,TGI,[37],> 100 µM
same,TGI,[38],> 100 µM
same,TGI,[39],> 100 µM
same,TGI,[40],> 100 µM
same,TGI,[41],> 100 µM
same,TGI,[42],> 100 µM
same,TGI,[43],> 100 µM
same,TGI,[44],> 100 µM
same,TGI,[45],> 100 µM
same,TGI,[46],> 100 µM
same,TGI,[47],> 100 µM
same,TGI,[48],> 100 µM
same,TGI,[49],> 100 µM
same,TGI,[50],> 100 µM
same,TGI,[51],> 100 µM
same,TGI,[52],> 100 µM
same,TGI,[53],> 100 µM
same,TGI,[54],> 100 µM
same,TGI,[55],> 100 µM
Cn1c(=O)nc2n(-c3cc(Cl)ccc3Cl)c3ccccc3nc-2c1=O,TGI,[1],35.7 µM
same,TGI,[2],21.2 µM
same,TGI,[3],5.47 µM
same,TGI,[4],34.6 µM
same,TGI,[5],21.9 µM
same,TGI,[56],9.32 µM
same,TGI,[6],> 100 µM
same,TGI,[7],31.6 µM
same,TGI,[9],30.7 µM
same,TGI,[10],6.43 µM
same,TGI,[11],20.4 µM
same,TGI,[12],5.2 µM
same,TGI,[13],7.9 µM
same,TGI,[14],4.92 µM
same,TGI,[15],13 µM
same,TGI,[16],33.7 µM
same,TGI,[17],4.06 µM
same,TGI,[18],34.1 µM
same,TGI,[19],15.2 µM
same,TGI,[20],16.7 µM
same,TGI,[21],19.5 µM
same,TGI,[22],17.8 µM
same,TGI,[23],18.1 µM
same,TGI,[24],25.7 µM
same,TGI,[25],6.86 µM
same,TGI,[26],24.6 µM
same,TGI,[27],2.85 µM
same,TGI,[28],14.4 µM
same,TGI,[29],26.4 µM
same,TGI,[30],3.38 µM
same,TGI,[31],29.7 µM
same,TGI,[32],18.8 µM
same,TGI,[33],18.9 µM
same,TGI,[35],4.55 µM
same,TGI,[36],28.3 µM
same,TGI,[37],46.4 µM
same,TGI,[38],20.1 µM
same,TGI,[39],13.4 µM
same,TGI,[40],13.3 µM
same,TGI,[41],9.92 µM
same,TGI,[42],28.6 µM
same,TGI,[57],15.4 µM
same,TGI,[44],21.3 µM
same,TGI,[45],22 µM
same,TGI,[46],12.2 µM
same,TGI,[47],30.4 µM
same,TGI,[48],16.6 µM
same,TGI,[49],25.3 µM
same,TGI,[51],27.8 µM
same,TGI,[52],91.9 µM
same,TGI,[53],13.6 µM
same,TGI,[54],16.2 µM
same,TGI,[55],16.2 µM

# From PubChem BioAssay (NCI)
